Experiments:
Type in all cases: in vivo
Digitaria ciliaris [1] = assay: Test Example 4: herbicidal effect test by stem and leaf treatment in upland field; conditions: 120 g per 10 ares, sprayed seven days after sowing, upland soil, 14 days after application; for inhibition at 1200 g/ha: Digitaria ciliaris, read-out: weed inhibition rate
Procedure: (§1) The present test was conducted in duplicate for each chemical concentration group, and the weed inhibition rate (%) was determined 14 days after chemical application using the following formula (Math. 1). [formula]
(§2) Pots with an area of 36 cm^2 were filled with upland soil (alluvial loam), twenty seeds each of weeds of Digitaria ciliaris, Echinochloa crus-galli, and Amaranthus viridis were uniformly mixed with the top 1 cm layer of soil and the surface was lightly pressed down. Seven days after sowing, an emulsifiable concentrate prepared according to Formulation Example 5 using the compound shown below was diluted with water, and the diluted solution was sprayed onto the soil surface at a rate of 100 liters per 10 ares. The amount of the active ingredient to be applied was equivalent to 120 g per 10 ares. Fourteen days after chemical application, the herbicidal effect was evaluated according to the same criteria as in Test Example 1.

Echinochloa crus-galli [2] = assay: as above; conditions: 120 g per 10 ares, sprayed seven days after sowing, upland soil, 14 days after application; for inhibition at 1200 g/ha: Echinochloa crus-galli, read-out: weed inhibition rate
[3] = system: Echinochloa crus-galli var. formosensis; assay: Test Example 1: herbicidal effect test by soil application in paddy rice; conditions: 120 g active ingredient per 10 ares, applied immediately after sowing, flooded pots, 14 days after application; for pest or weed control at 1200 g/ha: Echinochloa crus-galli, soil, 336 h, read-out: weed inhibition rate
Procedure: Wagner pots with an area of […] were filled with paddy soil, followed by addition of water and incorporation of chemical fertilizer (N:P:K = 16:16:16), after which puddling was performed. After that, seeds of Echinochloa crus-galli var. formosensis, broad-leaved weeds ([…] Monochoria vaginalis), and Scirpus juncoides were sown at a depth of 0 cm to 1 cm, 30 seeds each. Immediately after sowing, the pots were flooded and a water depth of approximately 3 cm was maintained. Subsequent management was conducted in a glass greenhouse. Immediately thereafter, an emulsifiable concentrate prepared according to Formulation Example 5 using the compound shown below was diluted with water, and a specified amount of the diluted solution was applied by dropper. The amount of the active ingredient to be applied was equivalent to 120 g per 10 ares.

[4] = system: Echinochloa crus-galli var. formosensis; assay: Test Example 2: herbicidal effect test by application during growth period of paddy rice; conditions: 120 g per 10 ares, applied seven days after sowing, flooded pots, 14 days after application; for inhibition at 1200 g/ha: Echinochloa crus-galli, read-out: weed inhibition rate
Procedure: as §1
Wagner pots with an area of […] were filled with paddy soil, followed by addition of water and incorporation of chemical fertilizer (N:P:K = 16:16:16), after which puddling was performed. After that, seeds of Echinochloa crus-galli var. formosensis, broad-leaved weeds (Monochoria vaginalis), and Scirpus juncoides were sown at a depth of 0 cm to 1 cm, 30 seeds each. Immediately after sowing, the pots were flooded and a water depth of approximately 3 cm was maintained. Subsequent management was conducted in a glass greenhouse. Seven days after sowing, an emulsifiable concentrate prepared according to Formulation Example 5 using the compound shown below was diluted with water, and a specified amount of the diluted solution was applied by dropper. The amount of the active ingredient to be applied was equivalent to 120 g per 10 ares. The test was conducted in duplicate for each chemical concentration group, and the herbicidal effect was evaluated 14 days after chemical application using the same criteria as in Test Example 1.

Digitaria ciliaris [5] = assay: Test Example 3: herbicidal effect test by soil application in upland field; conditions: 120 g per 10 ares, sprayed one day after sowing, 14 days after application; for inhibition at 1200 g/ha: Digitaria ciliaris, read-out: weed inhibition rate
Procedure: as §1
as §2, with “crus-galli, Chenopodium album,” for “crus-galli,”, “One day” for “Seven days”

Echinochloa crus-galli [6] = assay: as above; conditions: 120 g per 10 ares, sprayed one day after sowing, 14 days after application; for inhibition at 1200 g/ha: Echinochloa crus-galli, read-out: weed inhibition rate
Procedure: as §1
as §2, with “crus-galli, Chenopodium album,” for “crus-galli,”, “One day” for “Seven days”

CCOC1C[C@]2(C)O[C@@]1(C(C)C)C[C@H]2OCc1ccccc1F (mixture of isomers) [1-916, (1S,2R,4R,SR)-5-ethoxy-2-[(2-fluorophenyl)methoxy]-1-methyl-4-isopropyl-7-oxabicyclo[2.2.1]heptane]
≥ 80%: inhibition at 1200 g/ha (Digitaria ciliaris [1]) | inhibition at 1200 g/ha (Echinochloa crus-galli [2])

CC(C)=CCO[C@H]1C[C@@]2(C(C)C)O[C@]1(C)CC2Br (mixture of isomers) [1-1007, (1R,2S,4S,SR)-5-bromo-1-methyl-2-(3-methylbut-2-enoxy)-4-isopropyl-7-oxabicyclo[2.2.1]heptane]
≥ 80%: pest or weed control at 1200 g/ha [3] | inhibition at 1200 g/ha [4] | inhibition at 1200 g/ha (Digitaria ciliaris [5]) | inhibition at 1200 g/ha (Echinochloa crus-galli [6]) | inhibition at 1200 g/ha (Digitaria ciliaris [1]) | inhibition at 1200 g/ha (Echinochloa crus-galli [2])

CC(C)[C@@]12C[C@H](OCc3ccccc3Cl)[C@@](C)(CC1Br)O2 (mixture of isomers) [1-1031, (1R,2S,4S,SR)-5-bromo-2-[(2-chlorophenyl)methoxy]-1-methyl-4-isopropyl-7-oxabicyclo[2.2.1]heptane]
≥ 80%: pest or weed control at 1200 g/ha [3] | inhibition at 1200 g/ha [4] | inhibition at 1200 g/ha (Digitaria ciliaris [5]) | inhibition at 1200 g/ha (Echinochloa crus-galli [6]) | inhibition at 1200 g/ha (Digitaria ciliaris [1]) | inhibition at 1200 g/ha (Echinochloa crus-galli [2])

CC(C)[C@@]12C[C@H](OCc3ccccc3)[C@@](C)(CC1I)O2 (mixture of isomers) [1-1081, (1R,2S,4S,SR)-5-iodo-1-methyl-2-phenylmethoxy-4-isopropyl-7-oxabicyclo[2.2.1]heptane]
≥ 80%: pest or weed control at 1200 g/ha [3] | inhibition at 1200 g/ha [4] | inhibition at 1200 g/ha (Digitaria ciliaris [5]) | inhibition at 1200 g/ha (Echinochloa crus-galli [6]) | inhibition at 1200 g/ha (Digitaria ciliaris [1]) | inhibition at 1200 g/ha (Echinochloa crus-galli [2])

CC(C)[C@]12C[C@@H](OCc3ccccc3F)[C@](C)(C[C@H]1C)O2 (racemic) [1-1597, (1SR,2RS,4RS,5RS)-2-[(2-fluorophenyl)methoxy]-1,5-dimethyl-4-isopropyl-7-oxabicyclo[2.2.1]heptane]
≥ 80%: pest or weed control at 1200 g/ha [3] | inhibition at 1200 g/ha [4] | inhibition at 1200 g/ha (Digitaria ciliaris [5]) | inhibition at 1200 g/ha (Echinochloa crus-galli [6]) | inhibition at 1200 g/ha (Digitaria ciliaris [1]) | inhibition at 1200 g/ha (Echinochloa crus-galli [2])

C=CCO[C@@H]1C[C@]2(C(C)C)O[C@@]1(C)C[C@@H]2Br [1-671, (1S,2R,4R,5S)-5-bromo-1-methyl-4-isopropyl-2-prop-2-enoxy-7-oxabicyclo[2.2.1]heptane]
≥ 80%: inhibition at 1200 g/ha (Echinochloa crus-galli [2])

C#CCO[C@@H]1C[C@]2(C(C)C)O[C@@]1(C)C[C@@H]2Br [1-673, (1S,2R,4R,5S)-5-bromo-1-methyl-4-isopropyl-2-prop-2-ynoxy-7-oxabicyclo[2.2.1]heptane]
≥ 80%: pest or weed control at 1200 g/ha [3] | inhibition at 1200 g/ha [4]

COCO[C@@H]1C[C@]2(C(C)C)O[C@@]1(C)C[C@@H]2Br [1-677, (1S,2R,4R,5S)-5-bromo-2-(methoxymethoxy)-1-methyl-4-isopropyl-7-oxabicyclo[2.2.1]heptane]
≥ 80%: inhibition at 1200 g/ha [4]

CC(C)[C@]12C[C@@H](OCc3cccc(Br)c3)[C@](C)(C[C@@H]1Br)O2 [1-695, (1S,2R,4R,5S)-5-bromo-2-[(3-bromophenyl)methoxy]-1-methyl-4-isopropyl-7-oxabicyclo[2.2.1]heptane]
≥ 80%: pest or weed control at 1200 g/ha [3] | inhibition at 1200 g/ha [4] | inhibition at 1200 g/ha (Digitaria ciliaris [5]) | inhibition at 1200 g/ha (Echinochloa crus-galli [6]) | inhibition at 1200 g/ha (Digitaria ciliaris [1]) | inhibition at 1200 g/ha (Echinochloa crus-galli [2])

CC(C)[C@]12C[C@@H](OCc3ccc(Br)cc3)[C@](C)(C[C@@H]1Br)O2 [1-696, (1S,2R,4R,5S)-5-bromo-2-[(4-bromophenyl)methoxy]-1-methyl-4-isopropyl-7-oxabicyclo[2.2.1]heptane]
≥ 80%: pest or weed control at 1200 g/ha [3] | inhibition at 1200 g/ha [4] | inhibition at 1200 g/ha (Digitaria ciliaris [5]) | inhibition at 1200 g/ha (Echinochloa crus-galli [6]) | inhibition at 1200 g/ha (Digitaria ciliaris [1]) | inhibition at 1200 g/ha (Echinochloa crus-galli [2])

CC(C)[C@]12C[C@@H](OCc3cccc(C(F)(F)F)c3)[C@](C)(C[C@@H]1Br)O2 [1-701, (1S,2R,4R,5S)-5-bromo-l-methyl-4-isopropyl-2-[[3-(trifluoromethyl)phenyl]methoxy]-7-oxabicyclo[2.2.1]heptane]
≥ 80%: weed inhibition rate [3] | weed inhibition rate [4] | weed inhibition rate (Digitaria ciliaris [5]) | weed inhibition rate (Echinochloa crus-galli [6]) | weed inhibition rate (Digitaria ciliaris [1]) | weed inhibition rate (Echinochloa crus-galli [2])

CC(C)[C@]12C[C@@H](OCc3ccc(C#N)cc3)[C@](C)(C[C@@H]1Br)O2 [1-705, 4-[[(1S,2R,4R,5S)-5-bromo-1-methyl-4-isopropyl-7-oxabicyclo[2.2.1]heptan-2-yl]oxymethyl]benzonitrile]
≥ 80%: pest or weed control at 1200 g/ha [3] | inhibition at 1200 g/ha [4] | inhibition at 1200 g/ha (Digitaria ciliaris [5]) | inhibition at 1200 g/ha (Echinochloa crus-galli [6]) | inhibition at 1200 g/ha (Digitaria ciliaris [1]) | inhibition at 1200 g/ha (Echinochloa crus-galli [2])

CC(C)[C@]12C[C@@H](OCc3ccc4ccccc4c3)[C@](C)(C[C@@H]1Br)O2 [1-716, (1S,2R,4R,5S)-5-bromo-1-methyl-2-(naphthalen-2-ylmethoxy)-4-isopropyl-7-oxabicyclo[2.2.1]heptane]
≥ 80%: pest or weed control at 1200 g/ha [3] | inhibition at 1200 g/ha [4]

Cc1ccc(C2C[C@]3(C)O[C@@]2(C(C)C)C[C@H]3OCc2ccccc2F)cc1 (stereo partly drawn) [1-927, (1S,2R,4R)-2-((2-fluorobenzyl)oxy)-4-isopropyl-1-methyl-5-(p-tolyl)-7-oxabicyclo[2.2.1]heptane]
≥ 80%: inhibition at 1200 g/ha (Digitaria ciliaris [5]) | inhibition at 1200 g/ha (Echinochloa crus-galli [6])

CC(C)[C@@]12C[C@H](OCc3ccccc3)[C@@](C)(C[C@H]1Br)O2 [1-1015, (1R,2S,4S,5R)-5-bromo-1-methyl-2-phenylmethoxy-4-isopropyl-7-oxabicyclo[2.2.1]heptane]
≥ 80%: pest or weed control at 1200 g/ha [3] | inhibition at 1200 g/ha [4] | inhibition at 1200 g/ha (Digitaria ciliaris [5]) | inhibition at 1200 g/ha (Echinochloa crus-galli [6]) | inhibition at 1200 g/ha (Digitaria ciliaris [1]) | inhibition at 1200 g/ha (Echinochloa crus-galli [2])

COc1cccc(CO[C@@H]2C[C@]3(C(C)C)O[C@@]2(C)CC3=O)c1 [2-347, (1R,4S,5R)-1-isopropyl-5-((3-methoxybenzyl)oxy)-4-methyl-7-oxabicyclo[2.2.1]heptan-2-one]
≥ 80%: pest or weed control at 1200 g/ha [3] | inhibition at 1200 g/ha (Echinochloa crus-galli [6])

Reference: patent publication EP4707280A1, “1,4-CINEOLE DERIVATIVE AND INTERMEDIATE THEREOF, HERBICIDE CONTAINING SAID DERIVATIVE AS ACTIVE INGREDIENT, METHOD FOR USING HERBICIDE, AND METHOD FOR PREPARING AGROCHEMICAL COMPOSITION” (HOKKO CHEMICAL INDUSTRY CO., LTD., priority 2023, dated 2024)
